Measurements: PubChem BioAssay AID248 (DTP/NCI, 2004)
Where “and” joins values, the source holds several entries; their conditions need not be identical. Equal values may be shown once. Inconclusive results and toxic doses are left out. No stated cut-off is given here; in the data, active means T/C of 150% or more; inactive means T/C below 125%.

System: L1210 leukemia ip in BDF1 mice, survival T/C
Experiment: NCI In Vivo Anticancer Drug Screen. Data for tumor model L1210 Leukemia (intraperitoneal) in B6D2F1 (BDF1) mice
Details: endpoint: mean survival time, higher = longer survival
Outline: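 Ratio derived from survival: compound-dosed mice over vehicle-dosed mice, all bearing a transplantable tumor.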

[1] = dose: 75.0 mg/kg/injection, schedule: Q04DX003 (ip), vehicle: saline
[2] = dose: 150.0 mg/kg/injection, schedule: Q04DX003 (ip), vehicle: saline
[3] = dose: 100.0 mg/kg/injection, schedule: Q04DX003 (ip), vehicle: saline
[4] = dose: 200.0 mg/kg/injection, schedule: Q04DX003 (ip), vehicle: saline
[5] = dose: 400.0 mg/kg/injection, schedule: Q04DX003 (ip), vehicle: saline
[6] = dose: 100.0 mg/kg/injection, schedule: Q01DX009 (ip), vehicle: Klucel (hydroxypropylcellulose) (HPC)
[7] = dose: 100.0 mg/kg/injection, schedule: Q04DX003 (ip), vehicle: Klucel (hydroxypropylcellulose) (HPC)
[8] = dose: 200.0 mg/kg/injection, schedule: Q01DX009 (ip), vehicle: Klucel (hydroxypropylcellulose) (HPC)
[9] = dose: 200.0 mg/kg/injection, schedule: Q04DX003 (ip), vehicle: Klucel (hydroxypropylcellulose) (HPC)
[10] = dose: 400.0 mg/kg/injection, schedule: Q01DX009 (ip), vehicle: Klucel (hydroxypropylcellulose) (HPC)
[11] = dose: 400.0 mg/kg/injection, schedule: Q04DX003 (ip), vehicle: Klucel (hydroxypropylcellulose) (HPC)
[12] = dose: 100.0 mg/kg/injection, schedule: Q01DX001 (ip), vehicle: saline
[13] = dose: 200.0 mg/kg/injection, schedule: Q01DX001 (ip), vehicle: saline
[14] = dose: 400.0 mg/kg/injection, schedule: Q01DX001 (ip), vehicle: saline

Measured: T/C

CC1CC(Cc2cccc3ccccc23)C(=O)O1 (stereo unspecified)
inactive: dose: 37.5 mg/kg/injection, schedule: Q01DX009 (ip), vehicle: saline 102 % of control | dose: 75.0 mg/kg/injection, schedule: Q01DX001 (ip), vehicle: saline 97 % of control | dose: 75.0 mg/kg/injection, schedule: Q01DX009 (ip), vehicle: saline 98 % of control | [1] 96 % of control | dose: 150.0 mg/kg/injection, schedule: Q01DX001 (ip), vehicle: saline 97 % of control | dose: 150.0 mg/kg/injection, schedule: Q01DX009 (ip), vehicle: saline 96 % of control | [2] 94 % of control | dose: 300.0 mg/kg/injection, schedule: Q01DX001 (ip), vehicle: saline 98 % of control | dose: 300.0 mg/kg/injection, schedule: Q04DX003 (ip), vehicle: saline 94 % of control

N#Cc1cc2c3c(c1)CCCN3CCC2
inactive: dose: 50.0 mg/kg/injection, schedule: Q01DX009 (ip), vehicle: saline with Tween-80 91 % of control | dose: 100.0 mg/kg/injection, schedule: Q01DX009 (ip), vehicle: saline with Tween-80 93 % of control | dose: 200.0 mg/kg/injection, schedule: Q01DX009 (ip), vehicle: saline with Tween-80 90 % of control | dose: 400.0 mg/kg/injection, schedule: Q01DX009 (ip), vehicle: saline with Tween-80 96 % of control

O=C(O)CNCc1cccc(Br)c1
inactive: dose: 100.0 mg/kg/injection, schedule: Q01DX009 (ip), vehicle: saline 103 % of control | [3] 95 % of control | dose: 200.0 mg/kg/injection, schedule: Q01DX009 (ip), vehicle: saline 92 % of control | [4] 113 % of control | dose: 400.0 mg/kg/injection, schedule: Q01DX009 (ip), vehicle: saline 98 % of control | [5] 98 % of control

CSc1ccc(N2C(=O)C3C(C2=O)C2(Cl)C(Cl)=C(Cl)C3(Cl)C2(Cl)Cl)cc1 (stereo unspecified)
inactive: [6] 105 % of control | [7] 101 % of control | [8] 100 % of control | [9] 104 % of control | [10] 103 % of control | [11] 98 % of control

O=c1cc(NCc2ccccc2[N+](=O)[O-])[nH]c(=O)[nH]1
inactive: [12] 95 % of control | [13] 100 % of control | [14] 98 % of control

Cc1c(Cl)cccc1NC(=S)NC(=O)c1ccccc1
inactive: dose: 100.0 mg/kg/injection, schedule: Q04DX002 (ip), vehicle: saline with Tween-80 110 % of control | dose: 200.0 mg/kg/injection, schedule: Q04DX002 (ip), vehicle: saline with Tween-80 100 % of control | dose: 400.0 mg/kg/injection, schedule: Q04DX002 (ip), vehicle: saline with Tween-80 89 % of control

CC1c2cccc(Cl)c2C(=O)c2c(Cl)cccc21
inactive: [6] 102 % of control | [7] 108 % of control | [8] 102 % of control | [9] 102 % of control | [10] 110 % of control | [11] 96 % of control

Nc1c(Cl)c(Cl)c(Cl)c(Cl)c1C(=O)O
inactive: dose: 40.0 mg/kg/injection, schedule: Q01DX009 (ip), vehicle: Klucel (hydroxypropylcellulose) (HPC) 105 % of control | dose: 75.0 mg/kg/injection, schedule: Q01DX009 (ip), vehicle: Klucel (hydroxypropylcellulose) (HPC) 103 % of control | [1] 104 % of control | [6] 93 % of control | dose: 150.0 mg/kg/injection, schedule: Q01DX009 (ip), vehicle: Klucel (hydroxypropylcellulose) (HPC) 97 % of control and 122 % of control | [2] 98 % of control | [8] 93 % of control

N#Cc1c(CSC(=N)N)sc2ccccc12
inactive: dose: 12.5 mg/kg/injection, schedule: Q04DX003 (ip), vehicle: Klucel (hydroxypropylcellulose) (HPC) 102 % of control | dose: 25.0 mg/kg/injection, schedule: Q01DX009 (ip), vehicle: Klucel (hydroxypropylcellulose) (HPC) 105 % of control | dose: 25.0 mg/kg/injection, schedule: Q04DX003 (ip), vehicle: Klucel (hydroxypropylcellulose) (HPC) 101 % of control | dose: 50.0 mg/kg/injection, schedule: Q01DX009 (ip), vehicle: Klucel (hydroxypropylcellulose) (HPC) 101 % of control | dose: 50.0 mg/kg/injection, schedule: Q04DX003 (ip), vehicle: Klucel (hydroxypropylcellulose) (HPC) 96 % of control | [6] 100 % of control | [7] 98 % of control

Cc1cc(/C=C\c2ccccc2Cl)nc2cc(Cl)ccc12
inactive: [3] 102 % of control | [4] 98 % of control | [5] 102 % of control

CC1([CH2][Hg][I])COCC([CH2][Hg][I])O1 (stereo unspecified)
inactive: dose: 0.78 mg/kg/injection, schedule: Q01DX001 (ip), vehicle: acetone 105 % of control | dose: 0.78 mg/kg/injection, schedule: Q04DX003 (ip), vehicle: saline 98 % of control | dose: 1.56 mg/kg/injection, schedule: Q01DX001 (ip), vehicle: acetone 94 % of control | dose: 1.56 mg/kg/injection, schedule: Q04DX003 (ip), vehicle: saline 96 % of control | dose: 3.12 mg/kg/injection, schedule: Q01DX001 (ip), vehicle: acetone 94 % of control | dose: 3.12 mg/kg/injection, schedule: Q04DX003 (ip), vehicle: saline 98 % of control | dose: 4.6 mg/kg/injection, schedule: Q04DX003 (ip), vehicle: acetone 93 % of control | dose: 5.75 mg/kg/injection, schedule: Q01DX009 (ip), vehicle: acetone 107 % of control | dose: 7.0 mg/kg/injection, schedule: Q04DX003 (ip), vehicle: acetone 96 % of control | dose: 10.5 mg/kg/injection, schedule: Q04DX003 (ip), vehicle: acetone 95 % of control | dose: 11.5 mg/kg/injection, schedule: Q01DX009 (ip), vehicle: acetone 107 % of control | dose: 15.0 mg/kg/injection, schedule: Q04DX003 (ip), vehicle: saline 110 % of control | dose: 23.0 mg/kg/injection, schedule: Q01DX009 (ip), vehicle: acetone 111 % of control | dose: 23.0 mg/kg/injection, schedule: Q04DX003 (ip), vehicle: saline 110 % of control

COc1cc(NS(C)(=O)=O)ccc1NS(C)(=O)=O
inactive: [6] 112 % of control | [7] 108 % of control | [8] 108 % of control | [9] 94 % of control | [10] 103 % of control | [11] 100 % of control

Cc1ccc(S(=O)(=O)N(c2ccccc2-c2ccccc2)C(C)C(=O)O)cc1 (stereo unspecified)
inactive: [12] 98 % of control | [13] 103 % of control | [14] 102 % of control

CC1(C(=O)O)COC(=O)N1 (stereo unspecified)
inactive: dose: 25.0 mg/kg/injection, schedule: Q04DX002 (ip), vehicle: saline 96 % of control | dose: 50.0 mg/kg/injection, schedule: Q04DX002 (ip), vehicle: saline 104 % of control | dose: 100.0 mg/kg/injection, schedule: Q04DX002 (ip), vehicle: saline 86 % of control

CN1c2cccc[c]2[Sn]([c]2ccccc2)([c]2ccccc2)[c]2ccccc21
inactive: dose: 100.0 mg/kg/injection, schedule: Q01DX001 (ip), vehicle: steriod suspending solution 94 % of control | dose: 200.0 mg/kg/injection, schedule: Q01DX001 (ip), vehicle: steriod suspending solution 94 % of control | dose: 400.0 mg/kg/injection, schedule: Q01DX001 (ip), vehicle: steriod suspending solution 100 % of control

CC(C)C1CCC(NC(=O)NCCF)CC1 (stereo unspecified)
inactive: dose: 9.5 mg/kg/injection, schedule: Q01DX001 (ip), vehicle: other 105 % of control | dose: 19.0 mg/kg/injection, schedule: Q01DX001 (ip), vehicle: other 100 % of control | dose: 38.0 mg/kg/injection, schedule: Q01DX001 (ip), vehicle: other 102 % of control
